Where a name gives a salt, the structure may show the parent alone.
Biological target: T1, WIZ (Homo sapiens, UniProt O95785+Q96SW2)
T1 construct: expressed in transfected cells
Experiment: Quantification of WIZ protein levels in HiBit tag fusion protein assay (WIZ HiBit assay in 293T cells)
Format: cell-based
Settings: for % degradation of WIZ (100-Amax) / Dmax at 25 µM: 100 minus Amax at 25 uM; for WIZ Amax / remaining activity at 25 µM: DMSO-normalized, curve-fitted percentage of WIZ-HiBit remaining at 25 uM; for DC50: WIZ HiBit assay in 293T cells, 10-point, 5-fold dilution, highest concentration 25 μM, about 18 hours, read-out: WIZ AC50; for Dmax at 25 µM / remaining activity at 25 µM: HEK-293T; for Dmax at 25 µM: read-out: % degradation of WIZ (100-Amax); for remaining activity at 25 µM: read-out: WIZ Amax
Procedure: The HiBit system from Promega was used to develop high-throughput and quantitative assays to measure changes in WIZ protein levels in response to compounds. The HiBit tag was derived from a split Nanoluciferase and has the following protein sequence: […] (SEQ ID NO: 1). The complementary fragment of Nanoluciferase (known as LgBit, from Promega), was added to the HiBit tag to form an active Nanoluciferase enzyme whose activity can be precisely measured. In this way, the levels of a fusion protein with the HiBit tag can be quantified in cell lysates.
Lentiviral vectors, based on the Invitrogen™ pLenti6.2/V5 DEST backbone were constructed that places the HiBit tag upstream of WIZ and expressed the fusion protein from an HSVTK promotor.
To ensure moderate and consistent expression of the HiBit-WIZ fusion protein across all cells in the population, stable cell lines were constructed from cells harboring a single copy of the construct. Lentivirus packaged with the constructs were made using the ViraPower™kit from Invitrogen™. 293T cells from ATCC (Catalog number: CRL-3216), were infected with the virus at low multiplicity of infection and selected by 5 μg/mL blasticidin in culture media for 2 weeks.
The levels of HiBit-WIZ tagged fusion proteins in compound-treated cell lines were measured as follows:
On day 1, cells were diluted to 1.0×10^6 cells/ml in normal growth medium. 20 μL of cell suspension were plated in each well of a solid white 384-well plate. Plates were incubated overnight in a 37° C. and 5% CO2 humidified tissue culture incubator.
On day 2, serial dilutions of compounds were made in 384-well plates. Compound plates were set up with DMSO in columns 1, 2, 23, 24, and 10-point compound dilution series in column 3-12 and column 13-22. 10 mM stock solution of compound were placed into column 3 or 13 and a 1:5 serial dilution was carried out until there was a 10-point dilution series per compound. 50 nL of diluted compounds were transferred into the plated cells by Echo® (Labcyte) acoustic transfer. The highest concentration of compound was 25 μM. Plates were incubated overnight (about 18 hours) in a 37° C. and 5% CO2 humidified tissue culture incubator.
On day 3, plates were removed from the incubator and allowed to equilibrate at room temperature for 60 minutes. HiBit substrate (Nano-Glo® HiBit Lytic Detection System, Promega Catalogue number: N3050) was added as described by the manufacturers protocols. Plates were incubated at room temperature for 30 minutes and luminescence was read using an EnVision® reader (PerkinElmer®). Data was analyzed and visualized using the Spotfire® software package.
WIZ Amax reflects the DMSO-normalized, curve-fitted percentage of WIZ-HiBit remaining at 25 uM. It was calculated by normalizing DMSO controls to 100%, parametric curve fitting of the dose response data (10-point, 5-fold), followed by calculation of response at 25 uM using the fitted equation (nd=not determined).

T1 sequence (O95785 whole entry): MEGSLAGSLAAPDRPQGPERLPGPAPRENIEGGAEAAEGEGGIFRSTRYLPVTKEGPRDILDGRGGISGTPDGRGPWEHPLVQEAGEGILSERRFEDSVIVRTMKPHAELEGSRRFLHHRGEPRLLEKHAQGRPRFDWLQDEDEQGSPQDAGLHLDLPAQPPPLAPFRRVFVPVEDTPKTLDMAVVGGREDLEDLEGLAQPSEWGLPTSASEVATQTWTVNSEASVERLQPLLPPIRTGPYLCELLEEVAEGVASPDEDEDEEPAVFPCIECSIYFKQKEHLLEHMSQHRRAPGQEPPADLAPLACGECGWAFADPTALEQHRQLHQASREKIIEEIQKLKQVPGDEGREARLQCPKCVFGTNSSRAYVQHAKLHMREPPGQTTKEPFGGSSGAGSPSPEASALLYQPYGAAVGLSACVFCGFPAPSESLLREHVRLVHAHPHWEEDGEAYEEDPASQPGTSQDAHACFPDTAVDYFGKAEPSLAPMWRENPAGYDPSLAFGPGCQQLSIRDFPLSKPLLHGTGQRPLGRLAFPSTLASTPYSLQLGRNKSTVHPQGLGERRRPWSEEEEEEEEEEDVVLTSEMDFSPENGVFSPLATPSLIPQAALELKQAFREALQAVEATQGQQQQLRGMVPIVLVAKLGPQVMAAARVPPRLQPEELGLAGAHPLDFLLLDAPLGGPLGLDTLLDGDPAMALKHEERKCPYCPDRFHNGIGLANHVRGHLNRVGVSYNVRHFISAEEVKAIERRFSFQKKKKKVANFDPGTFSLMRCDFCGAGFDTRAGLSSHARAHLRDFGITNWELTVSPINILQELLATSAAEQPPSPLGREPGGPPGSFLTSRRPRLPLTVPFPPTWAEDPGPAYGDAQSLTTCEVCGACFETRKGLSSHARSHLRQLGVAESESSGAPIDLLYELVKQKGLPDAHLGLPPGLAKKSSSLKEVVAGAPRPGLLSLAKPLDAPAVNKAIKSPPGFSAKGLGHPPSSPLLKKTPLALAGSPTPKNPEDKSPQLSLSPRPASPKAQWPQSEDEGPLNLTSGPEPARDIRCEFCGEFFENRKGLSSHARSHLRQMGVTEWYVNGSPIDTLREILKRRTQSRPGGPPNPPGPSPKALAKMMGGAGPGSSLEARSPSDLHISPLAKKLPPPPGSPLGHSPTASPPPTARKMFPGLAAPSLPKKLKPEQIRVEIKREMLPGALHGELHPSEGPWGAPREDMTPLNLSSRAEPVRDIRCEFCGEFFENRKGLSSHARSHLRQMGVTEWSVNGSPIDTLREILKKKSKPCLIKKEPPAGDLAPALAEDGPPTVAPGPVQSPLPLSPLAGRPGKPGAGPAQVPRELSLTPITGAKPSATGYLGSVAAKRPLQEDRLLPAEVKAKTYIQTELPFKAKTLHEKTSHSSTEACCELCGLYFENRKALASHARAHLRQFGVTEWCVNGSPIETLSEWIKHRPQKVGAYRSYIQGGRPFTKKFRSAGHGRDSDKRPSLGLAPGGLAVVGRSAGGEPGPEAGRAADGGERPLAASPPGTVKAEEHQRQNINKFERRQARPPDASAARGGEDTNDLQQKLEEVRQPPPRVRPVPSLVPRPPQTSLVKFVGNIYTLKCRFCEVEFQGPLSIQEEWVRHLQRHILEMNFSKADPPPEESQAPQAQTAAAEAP
T1 sequence (Q96SW2 whole entry): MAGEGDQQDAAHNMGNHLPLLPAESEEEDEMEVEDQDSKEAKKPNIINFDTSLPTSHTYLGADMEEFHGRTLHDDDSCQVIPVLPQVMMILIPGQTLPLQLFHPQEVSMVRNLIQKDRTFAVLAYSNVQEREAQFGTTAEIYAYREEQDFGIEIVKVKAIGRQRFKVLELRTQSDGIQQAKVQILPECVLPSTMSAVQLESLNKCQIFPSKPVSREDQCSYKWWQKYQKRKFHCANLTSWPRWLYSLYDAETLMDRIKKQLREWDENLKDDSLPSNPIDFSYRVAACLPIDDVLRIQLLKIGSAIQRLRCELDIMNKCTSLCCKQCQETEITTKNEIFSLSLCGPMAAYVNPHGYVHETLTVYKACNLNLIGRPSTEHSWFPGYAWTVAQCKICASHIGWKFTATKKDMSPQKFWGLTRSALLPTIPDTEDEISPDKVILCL
T1 sequence (Q16531 whole entry partner): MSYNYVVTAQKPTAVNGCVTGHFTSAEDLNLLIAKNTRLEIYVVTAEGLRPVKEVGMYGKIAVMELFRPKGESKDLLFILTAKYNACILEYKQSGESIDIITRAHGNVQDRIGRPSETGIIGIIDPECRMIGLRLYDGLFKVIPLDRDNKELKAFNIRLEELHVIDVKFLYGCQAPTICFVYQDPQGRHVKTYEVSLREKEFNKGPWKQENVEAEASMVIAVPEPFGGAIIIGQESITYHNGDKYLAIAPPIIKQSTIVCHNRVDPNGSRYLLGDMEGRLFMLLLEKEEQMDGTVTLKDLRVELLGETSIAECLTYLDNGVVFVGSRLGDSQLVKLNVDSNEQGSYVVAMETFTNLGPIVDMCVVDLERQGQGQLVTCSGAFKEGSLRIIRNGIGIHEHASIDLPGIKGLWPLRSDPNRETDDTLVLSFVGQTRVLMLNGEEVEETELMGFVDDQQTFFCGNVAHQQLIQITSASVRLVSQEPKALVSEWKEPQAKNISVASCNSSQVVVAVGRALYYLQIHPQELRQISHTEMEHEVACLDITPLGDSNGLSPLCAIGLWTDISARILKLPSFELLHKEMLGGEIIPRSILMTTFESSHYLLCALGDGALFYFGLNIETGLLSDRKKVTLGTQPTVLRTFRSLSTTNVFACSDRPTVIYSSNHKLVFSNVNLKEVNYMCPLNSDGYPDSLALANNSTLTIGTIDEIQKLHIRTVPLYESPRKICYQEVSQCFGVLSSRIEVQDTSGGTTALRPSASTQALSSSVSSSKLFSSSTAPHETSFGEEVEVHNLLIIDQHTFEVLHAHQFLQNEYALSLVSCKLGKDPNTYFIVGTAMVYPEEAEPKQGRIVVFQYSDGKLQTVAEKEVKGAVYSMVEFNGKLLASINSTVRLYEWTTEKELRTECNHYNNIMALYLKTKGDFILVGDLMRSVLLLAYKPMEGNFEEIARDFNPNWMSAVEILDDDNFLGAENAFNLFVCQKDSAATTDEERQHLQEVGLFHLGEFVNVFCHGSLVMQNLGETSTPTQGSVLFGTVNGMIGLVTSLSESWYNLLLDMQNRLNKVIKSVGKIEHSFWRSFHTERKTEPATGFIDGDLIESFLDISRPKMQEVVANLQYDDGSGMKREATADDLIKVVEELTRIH

% degradation of WIZ (100-Amax) [%]	WIZ Amax [%]	DC50 [nM]	Dmax at 25 µM [%]	remaining activity at 25 µM [%]	SMILES
		317	86	14	O=C1CCN(c2noc3ccc(CN4CC5CCC4CN5CC4CCOCC4)cc23)C(=O)N1 (single isomer, unassigned) [Example 121, 1-(5-((5-((tetrahydro-2H-pyran-4-yl)methyl)-2,5-diazabicyclo[2.2.2]octan-2-yl)methyl)benzo[d]isoxazol-3-yl)dihydropyrimidine-2,4(1H,3H)-dione]
91	9	44			O=C1CCN(c2noc3ccc(CN4CC5CCC4CN5CC4CCOCC4)cc23)C(=O)N1 (single isomer, unassigned) [Example 122, 1-(5-((5-((tetrahydro-2H-pyran-4-yl)methyl)-2,5-diazabicyclo[2.2.2]octan-2-yl)methyl)benzo[d]isoxazol-3-yl)dihydropyrimidine-2,4(1H,3H)-dione]
		59	89	11	CN1CC2CCC1CN2Cc1ccc2onc(N3CCC(=O)NC3=O)c2c1 (single isomer, unassigned) [Example 123, 1-(5-((5-methyl-2,5-diazabicyclo[2.2.2]octan-2-yl)methyl)benzo[d]isoxazol-3-yl)dihydropyrimidine-2,4(1H,3H)-dione]
85	15	520			CN1CC2CCC1CN2Cc1ccc2onc(N3CCC(=O)NC3=O)c2c1 (single isomer, unassigned) [Example 124, 1-(5-((5-methyl-2,5-diazabicyclo[2.2.2]octan-2-yl)methyl)benzo[d]isoxazol-3-yl)dihydropyrimidine-2,4(1H,3H)-dione]
		120	85	15	CS(=O)(=O)N1CC2CCC1CN2Cc1ccc2onc(N3CCC(=O)NC3=O)c2c1 (single isomer, unassigned) [Example 125, 1-(5-((5-(methylsulfonyl)-2,5-diazabicyclo[2.2.2]octan-2-yl)methyl)benzo[d]isoxazol-3-yl)dihydropyrimidine-2,4(1H,3H)-dione]
83	17	134			CS(=O)(=O)N1CC2CCC1CN2Cc1ccc2onc(N3CCC(=O)NC3=O)c2c1 (single isomer, unassigned) [Example 126, 1-(5-((5-(methylsulfonyl)-2,5-diazabicyclo[2.2.2]octan-2-yl)methyl)benzo[d]isoxazol-3-yl)dihydropyrimidine-2,4(1H,3H)-dione]
		7.2	91	9	O=C1CCN(c2noc3ccc(CC4CCN(CC5CCCCC5)CC4)cc23)C(=O)N1 [Example 1, 1-(5-((1-(cyclohexylmethyl)piperidin-4-yl)methyl)benzo[d]isoxazol-3-yl)dihydropyrimidine-2,4(1H,3H)-dione]
		160	85	15	CC(C)(C)OC(=O)N1CCC(Cc2ccc3onc(N4CCC(=O)NC4=O)c3c2)CC1 [Example 1a, tert-butyl 4-((3-(2,4-dioxotetrahydropyrimidin-1(2H)-yl)benzo[d]isoxazol-5-yl)methyl)piperidine-1-carboxylate]
		210	88	12	O=C1CCN(c2noc3ccc(CC4CCNCC4)cc23)C(=O)N1 [Example 1b, 1-(5-(piperidin-4-ylmethyl)benzo[d]isoxazol-3-yl)dihydropyrimidine-2,4(1H,3H)-dione hydrochloride]
		1.2	92	8	O=C1CCN(c2noc3ccc(CC4CCN(CC5CCC(F)(F)CC5)CC4)cc23)C(=O)N1 [Example 2, 1-(5-((1-((4,4-difluorocyclohexyl)methyl)piperidin-4-yl)methyl)benzo[d]isoxazol-3-yl)dihydropyrimidine-2,4(1H,3H)-dione]
		10	92	8	O=C1CCN(c2noc3ccc(CC4CCN(CC5CCC5)CC4)cc23)C(=O)N1 [Example 3, 1-(5-((1-(cyclobutylmethyl)piperidin-4-yl)methyl)benzo[d]isoxazol-3-yl)dihydropyrimidine-2,4(1H,3H)-dione]
		33	92	8	O=C1CCN(c2noc3ccc(CC4CCN(Cc5cccnc5)CC4)cc23)C(=O)N1 [Example 4, 1-(5-((1-(pyridin-3-ylmethyl)piperidin-4-yl)methyl)benzo[d]isoxazol-3-yl)dihydropyrimidine-2,4(1H,3H)-dione]
		14	91	9	CC(C)CN1CCC(Cc2ccc3onc(N4CCC(=O)NC4=O)c3c2)CC1 [Example 5, 1-(5-((1-isobutylpiperidin-4-yl)methyl)benzo[d]isoxazol-3-yl)dihydropyrimidine-2,4(1H,3H)-dione]
		30	91	9	O=C1CCN(c2noc3ccc(CC4CCN(CC5CC5)CC4)cc23)C(=O)N1 [Example 6, 1-(5-((1-(cyclopropylmethyl)piperidin-4-yl)methyl)benzo[d]isoxazol-3-yl)dihydropyrimidine-2,4(1H,3H)-dione]
		18	91	9	O=C1CCN(c2noc3ccc(CC4CCN(Cc5cccc(F)c5)CC4)cc23)C(=O)N1 [Example 7, 1-(5-((1-(3-fluorobenzyl)piperidin-4-yl)methyl)benzo[d]isoxazol-3-yl)dihydropyrimidine-2,4(1H,3H)-dione]
		16	91	9	CCN1CCC(Cc2ccc3onc(N4CCC(=O)NC4=O)c3c2)CC1 [Example 8, 1-(5-((1-ethylpiperidin-4-yl)methyl)benzo[d]isoxazol-3-yl)dihydropyrimidine-2,4(1H,3H)-dione]
		56	91	9	O=C1CCN(c2noc3ccc(CC4CCN(Cc5ccccc5)CC4)cc23)C(=O)N1 [Example 9, 1-(5-((1-benzylpiperidin-4-yl)methyl)benzo[d]isoxazol-3-yl)dihydropyrimidine-2,4(1H,3H)-dione]
		45	90	10	CN1CCC(Cc2ccc3onc(N4CCC(=O)NC4=O)c3c2)CC1 [Example 10, 1-(5-((1-methylpiperidin-4-yl)methyl)benzo[d]isoxazol-3-yl)dihydropyrimidine-2,4(1H,3H)-dione]
		11	90	10	O=C1CCN(c2noc3ccc(CC4CCN(CCC5CCCCC5)CC4)cc23)C(=O)N1 [Example 11, 1-(5-((1-(2-cyclohexylethyl)piperidin-4-yl)methyl)benzo[d]isoxazol-3-yl)dihydropyrimidine-2,4(1H,3H)-dione]

SMILES	% degradation of WIZ (100-Amax) [%]	WIZ Amax [%]	DC50 [nM]	Dmax at 25 µM [%]	remaining activity at 25 µM [%]
CC(C)(C)OC(=O)N1[C@@H]2CC[C@H]1CC(Cc1ccc3onc(N4CCC(=O)NC4=O)c3c1)C2 (single isomer, unassigned) [Example 54]	92	8	196		
CC(C)(C)OC(=O)N1[C@@H]2CC[C@H]1CC(Cc1ccc3onc(N4CCC(=O)NC4=O)c3c1)C2 (single isomer, unassigned) [Example 55]	70	30	3200		

— patent US20250276964A1 (Novartis AG, priority 2021, published 2025)
